From patent publication US20230225973A1, “MULTI-LAYERED MEDICAMENT FOR INHALATION” (Mylan Pharma UK Limited, priority 2020, published 2023)

Key:
[1] = Comparison of fine particle dose (FPD) performance of blended combination, layer filled combination and baseline products; assay type: physicochemical; details: FIG. 6; product T3 (low shear triple blend)
Method: The two options were to either: 1) layer fill blends of the individual products or; 2) low shear mix blends of the individual products. The individual products were either 0.58% w/w salmeterol xinafoate/4% w/w fluticasone propionate combination blend or 4.8% w/w 5-[3-(3-Hydroxyphenoxy)azetidin-1-yl]-5-methyl-2,2-diphenylhexanamide hydrochloride blend.
Four products (L1, L2, L3, and T3) were prepared as outline below. Products L1 and L2 were the baseline products for the layer filled combination product L3, and the blended combination product, T3.
The blend is made of 4.8% w/w 5-[3-(3-Hydroxyphenoxy)azetidin-1-yl]-5-methyl-2,2-diphenylhexanamide hydrochloride mixed with lactose monohydrate in a Diosna high shear blender. The nominal dose of 5-[3-(3-Hydroxyphenoxy)azetidin-1-yl]-5-methyl-2,2-diphenylhexanamide hydrochloride per pocket is 264 mcg.
The blend is made of 0.58% w/w salmeterol xinafoate and 4% w/w fluticasone propionate mixed with lactose monohydrate in a Diosna high shear blender. The nominal doses of salmeterol xinafoate and fluticasone propionate per pocket are 72.5 mcg and 500 mcg, respectively.
The salmeterol xinafoate/fluticasone propionate blend is made of 0.58% w/w salmeterol xinafoate and 4% w/w fluticasone propionate mixed with lactose monohydrate in a Diosna high shear blender. The 5-[3-(3-Hydroxyphenoxy)azetidin-1-yl]-5-methyl-2,2-diphenylhexanamide hydrochloride blend is made of 4.8% w/w 5-[3-(3-Hydroxyphenoxy)azetidin-1-yl]-5-methyl-2,2-diphenylhexanamide hydrochloride mixed with lactose monohydrate in a Diosna high shear blender. The nominal doses of salmeterol xinafoate, fluticasone propionate and 5-[3-(3-Hydroxyphenoxy)azetidin-1-yl]-5-methyl-2,2-diphenylhexanamide hydrochloride per pocket are 72.5 mcg, 500 mcg and 264 mcg, respectively.
The triple blend is prepared by mixing with a low shear Turbula mixer, a 0.58% w/w salmeterol xinafoate, 4% w/w fluticasone propionate blend with 4.8% w/w 5-[3-(3-Hydroxyphenoxy)azetidin-1-yl]-5-methyl-2,2-diphenylhexanamide hydrochloride blend in the ratio 12.5:5.5. […]

[2] = Aerosolization performance: TIR and FPM from a next generation impactor (NGI), equivalence of MGR001/MGR002 with MGR003; assay type: physicochemical; details: for FPM, Pass/fail (0.90-1.11) / TIR, Pass/fail (0.90-1.11): 90% CI of ratio of geometric means within 0.90-1.11
Excerpt: The same batches for MGR002 and MGR003 were utilized in obtaining emitted data used to obtain aerosolization performance information. Table 5 below presents the results and equivalence criteria, respectively for 5-[3-(3-Hydroxyphenoxy)azetidin-1-yl]-5-methyl-2,2-diphenylhexanamide hydrochloride of formula II, fluticasone propionate and salmeterol.
The […] (FPM) and mean total impactor recovery (TIR) from a next generation impactor (NGI) for each batch were equivalent, based on the fact that the upper/lower 90% confidence interval of the ratio of the geometric mean, rested between 0.90 and 1.11. […] The fluticasone propionate and salmeterol xinafoate components of the MGR003 drug product also met the same performance targets as the MGR001 250/50 drug product.

[3] = FPM from next generation impactor
[4] = mean total impactor recovery, next generation impactor

Structure (SMILES) | FPD of the individual drug in blended combination product T3 versus baseline product [1] | FPM, ratio of geometric means (MGR001 divided by MGR003) [2, 3] | FPM, Pass/fail (0.90-1.11) ([2]; MGR001 versus MGR003) | TIR, Pass/fail (0.90-1.11) ([2]; MGR001 versus MGR003) | TIR, ratio of geometric means (MGR001 divided by MGR003) [2, 4] | FPM, ratio of geometric means (MGR002 divided by MGR003) [2, 3] | FPM, Pass/fail (0.90-1.11) ([2]; MGR002 versus MGR003) | TIR, Pass/fail (0.90-1.11) ([2]; MGR002 versus MGR003) | TIR, ratio of geometric means (MGR002 divided by MGR003) [2, 4]
OCc1cc(C(O)CNCCCCCCOCCCCc2ccccc2)ccc1O (stereo not drawn) [Salmeterol, salmeterol xinafoate] | more variability | 1.01 | Pass | Pass | 0.97 |  |  |  | 
CCC(=O)O[C@]1(C(=O)SCF)[C@H](C)C[C@H]2[C@@H]3C[C@H](F)C4=CC(=O)C=C[C@]4(C)[C@@]3(F)[C@@H](O)C[C@@]21C [Fluticasone propionate, fluticasone propionate] | slightly lowered FPD | 0.99 | Pass | Pass | 0.96 |  |  |  | 
CC(C)(CCC(C(N)=O)(c1ccccc1)c1ccccc1)N1CC(Oc2cccc(O)c2)C1.Cl [5-[3-(3-Hydroxyphenoxy)azetidin-1-yl]-5-methyl-2,2-diphenylhexanamide hydrochloride] | much lower FPD |  |  |  |  | 0.95 | Pass | Pass | 0.97
